Assays:
[1] = mn = molality of the nth substance listed, in mol/kg; conditions: 101.3 kPa, Liquid; for speed of sound: Pulse-echo method
[2] = 101.3 kPa, Liquid

[Cl-].[Cl-].[Zn+2] [zinc chloride] + CC#N
mass density [kg/m3], [1]
Conditions | m1 = 0.05257 | m1 = 0.06571 | m1 = 0.07576 | m1 = 0.08438 | m1 = 0.1077 | m1 = 0.128 | m1 = 0.1487 | m1 = 0.1684 | m1 = 0.1902 | m1 = 0.2114
288.15 K | 791.935 | 793.095 | 794 | 794.764 | 796.85 | 798.676 | 800.536 | 802.335 | 804.302 | 806.244
293.15 K | 786.551 | 787.712 | 788.618 | 789.38 | 791.469 | 793.289 | 795.155 | 796.955 | 798.922 | 800.862
298.15 K | 781.15 | 782.313 | 783.217 | 783.985 | 786.068 | 787.887 | 789.746 | 791.541 | 793.519 | 795.456
303.15 K | 775.724 | 776.886 | 777.79 | 778.553 | 780.64 | 782.455 | 784.317 | 786.115 | 788.091 | 790.032
308.15 K | 770.266 | 771.431 | 772.33 | 773.096 | 775.184 | 777.003 | 778.858 | 780.661 | 782.635 | 784.575
313.15 K | 764.781 | 765.94 | 766.841 | 767.607 | 769.697 | 771.516 | 773.372 | 775.165 | 777.148 | 779.089
323.15 K | 753.694 | 754.859 | 755.76 | 756.526 | 758.618 | 760.435 | 762.295 | 764.103 | 766.072 | 768.014

CC#N [acetonitrile] + [Cl-].[Cl-].[Zn+2]
[1], m2 = 0
Conditions | mass density [kg/m3]
288.15 K | 787.303
293.15 K | 781.922
298.15 K | 776.522
303.15 K | 771.095
308.15 K | 765.637
313.15 K | 760.151
323.15 K | 749.071

CC#N [acetonitrile] + [Br][Co][Br]
[1], m2 = 0
Conditions | mass density [kg/m3] | speed of sound [m/s]
288.15 K | 787.315 | –
293.15 K | 781.939 | –
298.15 K | 776.538 | 1278.3
303.15 K | 771.112 | –
308.15 K | 765.653 | –
313.15 K | 760.164 | –
323.15 K | 749.073 | –

CC#N [acetonitrile]
[2]
Conditions | mass density
288.15 K | 787.303 kg/m3 [middle of 5 runs]
293.15 K | 781.923 kg/m3 [middle of 5 runs]
298.15 K | 776.525 kg/m3 [middle of 5 runs]
303.15 K | 771.097 kg/m3 [middle of 5 runs]
308.15 K | 765.64 kg/m3 [middle of 5 runs]
313.15 K | 760.151 kg/m3 [middle of 5 runs]
323.15 K | 749.07 kg/m3 [middle of 5 runs]

Conditions | speed of sound [m/s]
[2], 298.15 K, Pulse-echo method | 1278.3

CC#N [acetonitrile] + [Br-].[Br-].[Mn+2]
[1], m2 = 0
Conditions | mass density [kg/m3]
288.15 K | 787.299
293.15 K | 781.923
298.15 K | 776.525
303.15 K | 771.097
308.15 K | 765.64
313.15 K | 760.148
323.15 K | 749.055

CC#N [acetonitrile] + [Br-].[Br-].[Zn+2]
[1], m2 = 0
Conditions | mass density [kg/m3]
288.15 K | 787.313
293.15 K | 781.935
298.15 K | 776.535
303.15 K | 771.106
308.15 K | 765.65
313.15 K | 760.159
323.15 K | 749.07

[Cl][Co][Cl] [cobalt chloride] + CC#N
[1]
Conditions | mass density, 288.15 K [kg/m3] | mass density, 293.15 K [kg/m3] | mass density, 298.15 K [kg/m3] | mass density, 303.15 K [kg/m3] | mass density, 308.15 K [kg/m3] | mass density, 313.15 K [kg/m3] | mass density, 323.15 K [kg/m3] | speed of sound, 298.15 K [m/s]
m1 = 0.08764 | 795.418 | 790.014 | 784.59 | 779.137 | 773.654 | 768.139 | 756.997 | 1279.8
m1 = 0.1171 | 798.185 | 792.779 | 787.348 | 781.889 | 776.401 | 770.881 | 759.736 | 1280.5
m1 = 0.146 | 800.89 | 795.475 | 790.038 | 784.571 | 779.078 | 773.545 | 762.939 | 1281.1
m1 = 0.1743 | 803.599 | 798.184 | 792.742 | 787.274 | 781.773 | 776.24 | 765.073 | 1281.8
m1 = 0.2031 | 806.356 | 800.934 | 795.487 | 790.011 | 784.51 | 778.973 | 767.796 | 1282.5
m1 = 0.2318 | 809.121 | 803.697 | 798.244 | 792.763 | 787.256 | 781.714 | 770.528 | 1283.2
m1 = 0.26 | 811.836 | 806.407 | 800.953 | 795.467 | 789.954 | 784.407 | 773.206 | 1284
m1 = 0.2873 | 814.493 | 809.058 | 803.595 | 798.109 | 792.59 | 787.039 | 775.843 | 1284.8

CC#N [acetonitrile] + [Cl][Co][Cl]
[1], m2 = 0
Conditions | mass density [kg/m3]
288.15 K | 787.297
293.15 K | 781.919
298.15 K | 776.518
303.15 K | 771.09
308.15 K | 765.631
313.15 K | 760.142
323.15 K | 749.056

From the NIST ThermoML archive (doi:10.1021/je7001946)
